Laboratory results as given in patent publication EP3833345B1, “SMALL MOLECULE-INHIBITORS OF 6-PHOSPHOFRUCTO-1-KINASE FOR REDUCING LACTATE GENERATION BY CANCER CELLS” (Kemijski Institut, priority 2018, dated 2020).

How the values were obtained:
Jurkat cells = test: Seahorse XF assay (ECAR and OCR) in Jurkat cells; assay type: cell-based, human; conditions: 100 µM added 24 hours before the experiment; treated versus untreated cells
Description: The efficiency of Inhibitors No. 3 and No. 9 was also tested by the determinations of glycolytic capacities in Jurkat cells in the presence and absence of inhibitors. For this purpose, Seahorse XF assay (Agilent Technology) was performed that enables non-destructive measurements of extracellular acidification rate (ECAR) and oxygen consumption rate (OCR) of tested cells. The cells were incubated in […] GlutaMAX medium with 10% FBS and 24 hours before the experiment inhibitors were added (100 µM). Non-adherent Jurkat cells (1×10^6 per mL) were stuck to the bottom of the wells by poly-I-lysine. The experiment was conducted essentially as recommended by Seahorse XF protocol and after 20 minutes of incubation, 1 µM of oligomycin A (ATP synthase inhibitor) and 0,25 µM of Carbonyl cyanide-4-(trifluoromethoxy)phenylhydrazone (FCCP) (mitochondrial oxidative phosphorylation uncoupler) were added to the cells. […] Reduced lactate excretion by the cells treated with both inhibitors might be responsible for reduced ECARs. Although the addition of oligomycin A and FCCP increased the extracellular acidification rate by the cells treated with both inhibitors, similar increase of ECAR was also observed in the untreated cells. […] It implies that inhibited PFK1 enzymes might reduce glycolytic flux and prevent the need for pyruvate reduction into lactate by re-oxidizing redundant cytosolic NADH. Under such conditions pyruvate can enter mitochondria, replenishing tri-carboxylic acids (TCA) cycle and fuelling oxidative respiration.

[1] = test system: human embryonic kidney (HEK 293) cells; test: lactate excretion by non-tumorigenic HEK 293 cells; assay type: cell-based
Description: (§1) The effect of Inhibitor No. 3 on lactate excretion was tested also on two non-tumorigenic cell lines. First, fast proliferating human embryonic kidney (HEK 293) cells were assessed for lactate formation in the presence of Inhibitor No. 3. RPMI 1640 GlutaMAX medium (Thermo Fisher) supplemented with 10% FBS was used as a growth medium. […] About 95 mg/L of lactate were detected after 72 hours of incubation by untreated cells (control) and by the cells growing in the presence of Inhibitor No. 3 (Figure 9a). Similar results were recorded also by non-tumorigenic MCF-10A cell line isolated form the epithelial cells of the mammary gland. The cells were cultivated in MEBM medium supplemented by additives that were obtained as a MEGM Kit from Lonza/Clonetics Corporation. Characteristically these cells grew slower than HEK 293 cells with correspondingly slower lactate excretion rate. After 96 hours of incubation, only about 27 mg/L of lactate was detected in the medium. Again, no influence of different concentrations of Inhibitor No. 3 on lactate generation could be observed (Figure 9b).

MCF-10A cell line = test: lactate excretion by non-tumorigenic MCF-10A cells; assay type: cell-based
Description: as §1

COLO 829 cells [2] = test: lactate excretion by COLO 829 cells; assay type: cell-based; conditions: inhibitor added 8 hours after inoculation, then at 24-hour intervals; low concentrations (from 10 µM)
COLO 829 cells [3] = test: cytotoxicity in COLO 829 cells (LDH kit); assay type: cell-based
Description: Lactate generation, growth yield and survival under normal and inhibitory conditions of three different tumorigenic cells lines were determined in more detailed measurements. […] Cytotoxicity was measured by the Lactate dehydrogenase (LDH) kit (Roche).

[4] = molecular target: T1, modified (47 kDa) 6-phosphofructo-1-kinase (PFK-M), sfPFK-M fragments (Homo sapiens, UniProt P08237); test: in vitro inhibition of purified recombinant modified (cancer-specific) PFK-M fragments
T1 sequence (P08237 1-443 limits assumed): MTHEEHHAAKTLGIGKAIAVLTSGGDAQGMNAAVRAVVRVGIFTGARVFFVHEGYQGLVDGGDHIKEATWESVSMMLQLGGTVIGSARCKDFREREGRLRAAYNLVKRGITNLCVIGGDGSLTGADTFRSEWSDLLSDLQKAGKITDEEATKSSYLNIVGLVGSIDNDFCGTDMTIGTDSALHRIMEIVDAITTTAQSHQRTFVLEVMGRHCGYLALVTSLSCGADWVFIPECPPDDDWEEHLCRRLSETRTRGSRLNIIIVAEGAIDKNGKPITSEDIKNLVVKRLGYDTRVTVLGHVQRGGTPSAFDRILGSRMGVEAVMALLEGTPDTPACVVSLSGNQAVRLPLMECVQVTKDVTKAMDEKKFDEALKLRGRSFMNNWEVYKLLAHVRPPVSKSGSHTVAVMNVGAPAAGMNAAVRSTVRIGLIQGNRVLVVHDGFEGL
Description: Initially, all compounds were tested in vitro for inhibition of the purified human native enzyme (85 kDa) and modified cancer-specific shorter fragments (47 kDa) of muscle type PFK-M, followed by measurements of the purified native enzyme (85 kDa) and shorter fragments (70 kDa) of liver type PFK-L isoform.
Selected compounds were tested for in vitro inhibition of isolated recombinant human native and modified PFK-M enzymes.
The yeast transformant encoding the native human PFK-M enzyme was designated as nPFKM strain while transformant encoding cancer specific shorter fragments was designated as sfPFKM strain. […] For the enzymatic measurements, all the substrates (F6P and ATP), auxiliary enzymes, NADH and inhibitors dissolved in DMSO were added first to the buffer with PEG. After thorough mixing of the buffer with all ingredients, the enzymatic reaction started by the insertion of the purified recombinant enzymes.

## O=C(CSc1nnc(-c2ccc3c(c2)OCO3)o1)Nc1ccon1 [Inhibitor No. 3, 2-[(5-benzo[1,3]dioxol-5-yl-1,3,4-oxadiazol-2-yl)sulfanyl]-N-isoxazol-3-yl-acetamide]
Jurkat cells
  ECAR and OCR values prior to the addition of oligomycin A and FCCP: untreated Jurkat cells revealed higher ECAR and OCR values
[1]; 72 hours of growth, different concentrations of inhibitor
  reduction of lactate generation, HEK 293: no significant reduction of lactate generation
[1]; after 72 hours of incubation, same for untreated control
  lactate detected, HEK 293: About 95 mg/L
MCF-10A cell line; after 96 hours of incubation, no influence of inhibitor concentration
  lactate detected in the medium, MCF-10A: about 27 mg/L
MCF-10A cell line; different concentrations, 96 hours
  influence on lactate generation, MCF-10A: no influence
COLO 829 cells [2]
  lactate formation in COLO 829 cells, sequential re-insertion: strong reduction of lactate formation
COLO 829 cells [3]; sequential addition at 24-hour intervals, 92 hours, average over medium without and with inhibitor
  average percentages of dead cells, COLO 829, sequential re-insertion: 1,95±0,15%
COLO 829 cells [3]; single addition, average over control and different concentrations of inhibitor
  average percent of dead COLO 829 cells: 5,01±1,08%
[4]
  IC50: ~15 µM
